Test results published in patent publication US20240393292A1, “ALLERGY ANTIGEN AND EPITOPE THEREOF” (HOYU CO., LTD., priority 2019, published 2024).
Values belong to the substance of their own block, whether it stands above or below them.

System: IgE antibodies from patients
Assay: Wheat epitope mapping (2): overlapping 10-amino-acid peptide fragments shifted by one amino acid;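 on Rank of partial sequence as epitope binding to IgE antibody: key = sequence deemed particularly important within the common 15-residue sequence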;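 on epitope sequence binding to IgE antibody, rank (Key/Preferably/More preferably): key of grades: preferably = shorter partial sequence still acting as epitope; more preferably = sequence improving IgE binding; key = particularly important sequence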
Type: binding, human
Method in brief: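 Cellulose-bound 10-mer peptides offset by one residue were probed with patient serum IgE and detected by chemiluminescence. Secondary-antibody-only signals were subtracted per peptide. Residual binding was expressed as % of the parent overlapping peptide, scored as none (<30%), poor (30–<50%), somewhat poor (50–<70%) or retained (≥70%).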

[1] = serum of patient P36 (WDEIA), partial sequence
[2] = serum of patient G9 (adult, general immediate type allergy to wheat)
[3] = serum of patient G9 (adult, general immediate type allergy to wheat), partial sequence
[4] = serum of patient P26 (WDEIA), sequence without X

Epitope sequence binding to IgE antibody, rank of the sequence [1]: Preferably
Substance: 2594 (QLVQQL; REGION 1..6: note = epitope) [compound 2594]

Epitope sequence binding to IgE antibody, rank of the sequence (serum of patient P35 (WDEIA), sequence without X): Key
Substance: 1252 (PQQPP; REGION 1..5: note = epitope) [compound 1252]

epitope sequence binding to IgE antibody, rank (Key/Preferably/More preferably) (serum of patient P32 (WDEIA)): Key
Substance: 1879 (TVRTLQ; REGION 1..6: note = epitope) [compound 1879]

epitope sequence binding to IgE antibody, rank (Key/Preferably/More preferably) (serum of patient G3 (adult, general immediate type allergy to wheat)): Key
Substance: 1780 (YLKKVG; REGION 1..6: note = epitope) [compound 1780]

epitope sequence binding to IgE antibody, rank (Key/Preferably/More preferably) (serum of patient P50 (child, general immediate type allergy to wheat)): Key
Substance: 1771 (KVGYNP; REGION 1..6: note = epitope) [compound 1771]

Epitope sequence binding to IgE antibody, rank of the sequence (serum of patient P2 (WDEIA), partial sequence): Key
Substance: 2548 (QSTY; REGION 1..4: note = epitope) [compound 2548]

epitope sequence binding to IgE antibody, rank (Key/Preferably/More preferably) (serum of patient P18 (WDEIA)): Preferably
Substance: 1802 (SGKELEALPK; REGION 1..10: note = epitope) [compound 1802]

Epitope sequence binding to IgE antibody, rank of the sequence (serum of patient P21 (WDEIA), sequence without X): Key
Substance: 1236 (PQQPP; REGION 1..5: note = epitope) [compound 1236]

Epitope sequence binding to IgE antibody, rank of the sequence (serum of patient P7 (WDEIA), sequence without X): Key
Substance: 1375 (PWQQQPL; REGION 1..7: note = epitope) [compound 1375]

Rank of partial sequence as epitope binding to IgE antibody (serum of patient P24 (WDEIA), sequence without X): Further preferably
Substance: 1463 (QQPISQQQAQ; REGION 1..10: note = epitope) [compound 1463]

Epitope sequence binding to IgE antibody, rank of the sequence (Key/Preferably/More preferably) (serum of patient P18 (WDEIA), sequence without X): Key
Substance: 2358 (TEIV; REGION 1..4: note = epitope) [compound 2358]

Epitope sequence binding to IgE antibody, rank of the sequence [1]: Key
Substance: 2512 (SQVSF; REGION 1..5: note = epitope) [compound 2512]

epitope sequence binding to IgE antibody, rank (Key/Preferably/More preferably) [2]: Preferably
Substance: 1786 (KEVSSYLKK; REGION 1..9: note = epitope) [compound 1786]

epitope sequence binding to IgE antibody, rank (Key/Preferably/More preferably) (serum of patient P24 (WDEIA)): Preferably
Substance: 1948 (QVPLVQQQ; REGION 1..8: note = epitope) [compound 1948]

Epitope sequence binding to IgE antibody, rank of the sequence (Key/Preferably/More preferably) (serum of patient P52 (child, general immediate type allergy to wheat), sequence without X): Preferably
Substance: 2253 (RNYRVAI; REGION 1..7: note = epitope) [compound 2253]

epitope sequence binding to IgE antibody, rank (Key/Preferably/More preferably) (serum of patient P18 (WDEIA)): Key
Substance: 1858 (RTLQ; REGION 1..4: note = epitope) [compound 1858]

Epitope sequence binding to IgE antibody, rank of the sequence (serum of patient P22 (WDEIA), sequence without X): Key
Substance: 1194 (QQQQFPPQ; REGION 1..8: note = epitope) [compound 1194]

Rank of partial sequence as epitope binding to IgE antibody (serum of patient G6 (adult, general immediate type allergy to wheat), sequence without X): More preferably
Substance: 1680 (YNPDKVPF; REGION 1..8: note = epitope) [compound 1680]

epitope sequence binding to IgE antibody, rank (Key/Preferably/More preferably) (serum of patient P36 (WDEIA)): Preferably
Substance: 1719 (EAANF; REGION 1..5: note = epitope) [compound 1719]

Epitope sequence binding to IgE antibody, rank of the sequence (serum of patient P16 (WDEIA), partial sequence): Preferably
Substance: 2504 (SSQVSF; REGION 1..6: note = epitope) [compound 2504]

Epitope sequence binding to IgE antibody, rank of the sequence (Key/Preferably/More preferably) (serum of patient P36 (WDEIA), sequence without X): Key
Substance: 2402 (TEIV; REGION 1..4: note = epitope) [compound 2402]

Epitope sequence binding to IgE antibody, rank of the sequence (Key/Preferably/More preferably) (serum of patient P28 (WDEIA), sequence without X): Key
Substance: 2379 (HDIDRCAY; REGION 1..8: note = epitope) [compound 2379]

Epitope sequence binding to IgE antibody, rank of the sequence (serum of patient P20 (WDEIA), partial sequence): Preferably
Substance: 2506 (SSQVSFQPSQ; REGION 1..10: note = epitope) [compound 2506]

epitope sequence binding to IgE antibody, rank (Key/Preferably/More preferably) (serum of patient P34 (WDEIA)): Key
Substance: 1883 (VRTLQ; REGION 1..5: note = epitope) [compound 1883]

Epitope sequence binding to IgE antibody, rank of the sequence (Key/Preferably/More preferably) (serum of patient P9 (WDEIA), sequence without X): Preferably
Substance: 2346 (YVTEIV; REGION 1..6: note = epitope) [compound 2346]

Epitope sequence binding to IgE antibody, rank of the sequence (serum of patient P54 (child, general immediate type allergy to wheat), partial sequence): Preferably
Substance: 2604 (YQLVQ; REGION 1..5: note = epitope) [compound 2604]

epitope sequence binding to IgE antibody, rank (Key/Preferably/More preferably) (serum of patient P30 (WDEIA)): Key
Substance: 1764 (KEVSSYLKKV; REGION 1..10: note = epitope) [compound 1764]

Epitope sequence binding to IgE antibody, rank of the sequence (serum of patient P12 (WDEIA), sequence without X): Key
Substance: 1226 (PIQQQP; REGION 1..6: note = epitope) [compound 1226]

Epitope sequence binding to IgE antibody, rank of the sequence (Key/Preferably/More preferably/Further preferably) (serum of patient P50 (child, general immediate type allergy to wheat), sequence without X): Preferably
Substance: 2295 (LGGIDKRV; REGION 1..8: note = epitope) [compound 2295]

Rank of partial sequence as epitope binding to IgE antibody (serum of patient P25 (WDEIA), sequence without X): Key
Substance: 1701 (EAANFT; REGION 1..6: note = epitope) [compound 1701]

Epitope sequence binding to IgE antibody, rank of the sequence (serum of patient P3 (WDEIA), sequence without X): Preferably
Substance: 1303 (INVEN; REGION 1..5: note = epitope) [compound 1303]

Epitope sequence binding to IgE antibody, rank of the sequence (serum of patient P4 (WDEIA), sequence without X): Preferably
Substance: 1414 (YLQPQQPISQ; REGION 1..10: note = epitope) [compound 1414]

Epitope sequence binding to IgE antibody, rank of the sequence (serum of patient P34 (WDEIA), partial sequence): Preferably
Substance: 2590 (QLVQQLCC; REGION 1..8: note = epitope) [compound 2590]

Epitope sequence binding to IgE antibody, rank of the sequence [3]: Key
Substance: 2630 (LASLSK; REGION 1..6: note = epitope) [compound 2630]

Rank of partial sequence as epitope binding to IgE antibody (serum of patient P29 (WDEIA), sequence without X): Key
Substance: 1632 (YNPD; REGION 1..4: note = epitope) [compound 1632]

epitope sequence binding to IgE antibody, rank (Key/Preferably/More preferably) (serum of patient P27 (WDEIA)): Key
Substance: 1866 (TVRTLQR; REGION 1..7: note = epitope) [compound 1866]

Epitope sequence binding to IgE antibody, rank of the sequence (serum of patient P28 (WDEIA), partial sequence): Key
Substance: 2731 (YKIGGI; REGION 1..6: note = epitope) [compound 2731]

epitope sequence binding to IgE antibody, rank (Key/Preferably/More preferably) (serum of patient P16 (WDEIA)): More preferably
Substance: 1848 (YTVRTLQRT; REGION 1..9: note = epitope) [compound 1848]

epitope sequence binding to IgE antibody, rank (Key/Preferably/More preferably) (serum of patient P21 (WDEIA)): Key
Substance: 1940 (VPLVQ; REGION 1..5: note = epitope) [compound 1940]

Epitope sequence binding to IgE antibody, rank of the sequence (Key/Preferably/More preferably) (serum of patient P30 (WDEIA), sequence without X): Preferably
Substance: 2236 (IRNYRVAI; REGION 1..8: note = epitope) [compound 2236]

Rank of partial sequence as epitope binding to IgE antibody [4]: Preferably
Substance: 1467 (YLQPQQPIS; REGION 1..9: note = epitope) [compound 1467]

Epitope sequence binding to IgE antibody, rank of the sequence [3]: Key
Substance: 2610 (LQQSTYQLV; REGION 1..9: note = epitope) [compound 2610]

epitope sequence binding to IgE antibody, rank (Key/Preferably/More preferably) (serum of patient P17 (WDEIA)): Key
Substance: 1854 (RTLQR; REGION 1..5: note = epitope) [compound 1854]

Epitope sequence binding to IgE antibody, rank of the sequence (serum of patient G7 (adult, general immediate type allergy to wheat), partial sequence): Preferably
Substance: 2541 (SSQVSFQPSQ; REGION 1..10: note = epitope) [compound 2541]

epitope sequence binding to IgE antibody, rank (Key/Preferably/More preferably) (serum of patient G4 (adult, general immediate type allergy to wheat)): Preferably
Substance: 1742 (KEAAN; REGION 1..5: note = epitope) [compound 1742]

Rank of partial sequence as epitope binding to IgE antibody [4]: Key
Substance: 1468 (YLQPQQP; REGION 1..7: note = epitope) [compound 1468]

epitope sequence binding to IgE antibody, rank (Key/Preferably/More preferably) (serum of patient G6 (adult, general immediate type allergy to wheat)): Key
Substance: 1830 (LPKFL; REGION 1..5: note = epitope) [compound 1830]

Epitope sequence binding to IgE antibody, rank of the sequence (serum of patient P32 (WDEIA), sequence without X): Key
Substance: 1248 (PQQPP; REGION 1..5: note = epitope) [compound 1248]

epitope sequence binding to IgE antibody, rank (Key/Preferably/More preferably) (serum of patient P29 (WDEIA)): Preferably
Substance: 1870 (YTVRTLQR; REGION 1..8: note = epitope) [compound 1870]

epitope sequence binding to IgE antibody, rank (Key/Preferably/More preferably) (serum of patient P17 (WDEIA)): Preferably
Substance: 1932 (QVPLVQQQ; REGION 1..8: note = epitope) [compound 1932]

Rank of partial sequence as epitope binding to IgE antibody (serum of patient G4 (adult, general immediate type allergy to wheat), sequence without X): Key
Substance: 1671 (YNPDKVPF; REGION 1..8: note = epitope) [compound 1671]

Epitope sequence binding to IgE antibody, rank of the sequence (serum of patient P26 (WDEIA), partial sequence): Key
Substance: 2647 (KEAAEM; REGION 1..6: note = epitope) [compound 2647]

Rank of partial sequence as epitope binding to IgE antibody (serum of patient P14 (WDEIA), sequence without X): Key
Substance: 1429 (YLQPQQ; REGION 1..6: note = epitope) [compound 1429]

epitope sequence binding to IgE antibody, rank (Key/Preferably/More preferably) [2]: Preferably
Substance: 1893 (YTVRTLQRT; REGION 1..9: note = epitope) [compound 1893]

Epitope sequence binding to IgE antibody, rank of the sequence (serum of patient P35 (WDEIA), partial sequence): Preferably
Substance: 2659 (EAAEMNKRSF; REGION 1..10: note = epitope) [compound 2659]

Epitope sequence binding to IgE antibody, rank of the sequence (serum of patient G6 (adult, general immediate type allergy to wheat), partial sequence): Key
Substance: 2607 (LQQSTYQLVQ; REGION 1..10: note = epitope) [compound 2607]
